Data reported in publication PMC4710522, “A Novel Triazolopyridine-Based Spleen Tyrosine Kinase Inhibitor That Arrests Joint Inflammation” (PLoS ONE, 2016).

Experiments:
Test in all cases: SelectScreen kinase assay
Type in all cases: biochemical
Bmx_h = target: T1, Bmx_h (Homo sapiens, UniProt P51813); details: KM ATP, read-out: % control
T1 construct: purchased Life Technologies (Invitrogen) SelectScreen, Z'-LYTE / Adapta
Summary of the method: (§1)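 ATP level varied by condition (KM for the specific enzyme, 10 µM or 100 µM), while compound stayed at 3 µM; % control calculated against uninhibited DMSO wells.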

CAMK1_h = target: T2, CAMK1_h (Homo sapiens, UniProt Q14012); details: 10 µM ATP, read-out: % control
T2 construct: purchased Life Technologies (Invitrogen) SelectScreen, Z'-LYTE / Adapta
Summary of the method: as §1

CHK2_h = target: T3, CHK2_h (Homo sapiens, UniProt O96017); details: KM ATP, read-out: % control
T3 construct: purchased Life Technologies (Invitrogen) SelectScreen, Z'-LYTE / Adapta
T3 sequence (O96017 whole entry): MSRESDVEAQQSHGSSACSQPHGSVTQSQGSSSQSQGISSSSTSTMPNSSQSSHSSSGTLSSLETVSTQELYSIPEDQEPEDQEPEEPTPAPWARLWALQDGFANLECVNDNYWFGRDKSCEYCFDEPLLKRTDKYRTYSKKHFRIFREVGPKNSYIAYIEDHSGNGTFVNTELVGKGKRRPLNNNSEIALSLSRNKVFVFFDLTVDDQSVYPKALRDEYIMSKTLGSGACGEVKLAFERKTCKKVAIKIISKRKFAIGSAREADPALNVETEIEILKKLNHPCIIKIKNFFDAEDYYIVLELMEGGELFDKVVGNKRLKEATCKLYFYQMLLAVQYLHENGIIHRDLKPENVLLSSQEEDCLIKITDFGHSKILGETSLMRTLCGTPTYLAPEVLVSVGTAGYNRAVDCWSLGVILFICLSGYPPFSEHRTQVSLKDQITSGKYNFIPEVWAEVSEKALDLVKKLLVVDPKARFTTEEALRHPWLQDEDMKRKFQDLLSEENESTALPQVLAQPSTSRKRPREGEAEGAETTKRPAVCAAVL
Summary of the method: as §1

CK1-alpha1_h = target: T4, CK1-alpha1_h (Homo sapiens, UniProt P48729); details: KM ATP, read-out: % control
T4 construct: purchased Life Technologies (Invitrogen) SelectScreen, Z'-LYTE / Adapta
Summary of the method: as §1

CLK3_h = target: T5, CLK3_h (Homo sapiens, UniProt P49761); details: KM ATP, read-out: % control
T5 construct: purchased Life Technologies (Invitrogen) SelectScreen, Z'-LYTE / Adapta
Summary of the method: as §1

EphA2_h = target: T6, EphA2_h (Homo sapiens, UniProt P29317); details: KM ATP, read-out: % control
T6 construct: purchased Life Technologies (Invitrogen) SelectScreen, Z'-LYTE / Adapta
T6 sequence (P29317 24-976): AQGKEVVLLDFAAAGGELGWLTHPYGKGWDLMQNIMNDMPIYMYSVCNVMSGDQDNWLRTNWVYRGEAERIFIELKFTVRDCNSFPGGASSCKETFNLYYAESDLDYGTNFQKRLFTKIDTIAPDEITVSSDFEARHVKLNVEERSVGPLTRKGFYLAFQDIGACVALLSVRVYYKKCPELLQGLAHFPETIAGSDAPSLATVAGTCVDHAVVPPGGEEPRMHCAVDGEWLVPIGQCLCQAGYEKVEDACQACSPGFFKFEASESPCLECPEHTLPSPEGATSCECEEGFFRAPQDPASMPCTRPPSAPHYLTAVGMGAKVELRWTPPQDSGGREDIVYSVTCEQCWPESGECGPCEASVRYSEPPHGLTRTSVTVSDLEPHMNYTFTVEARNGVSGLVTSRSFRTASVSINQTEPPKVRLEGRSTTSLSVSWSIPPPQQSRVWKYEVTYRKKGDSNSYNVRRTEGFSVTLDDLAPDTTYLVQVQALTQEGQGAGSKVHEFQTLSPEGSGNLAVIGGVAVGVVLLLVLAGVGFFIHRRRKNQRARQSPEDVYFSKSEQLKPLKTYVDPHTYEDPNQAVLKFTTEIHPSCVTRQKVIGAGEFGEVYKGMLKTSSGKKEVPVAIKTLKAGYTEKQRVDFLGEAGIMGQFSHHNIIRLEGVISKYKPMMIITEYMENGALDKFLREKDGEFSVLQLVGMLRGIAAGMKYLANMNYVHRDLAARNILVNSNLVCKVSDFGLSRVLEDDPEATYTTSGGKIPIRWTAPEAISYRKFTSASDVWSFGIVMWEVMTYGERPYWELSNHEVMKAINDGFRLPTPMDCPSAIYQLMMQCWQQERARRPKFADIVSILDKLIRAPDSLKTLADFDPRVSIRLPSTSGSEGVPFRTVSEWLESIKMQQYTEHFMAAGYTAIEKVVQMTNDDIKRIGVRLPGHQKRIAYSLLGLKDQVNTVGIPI
Summary of the method: as §1

EphA5_h = target: T7, EphA5_h (Homo sapiens, UniProt P54756); details: KM ATP, read-out: % control
T7 construct: purchased Life Technologies (Invitrogen) SelectScreen, Z'-LYTE / Adapta
Summary of the method: as §1

FGFR1_h = target: T8, FGFR1_h (Homo sapiens, UniProt P11362); details: KM ATP, read-out: % control
T8 construct: purchased Life Technologies (Invitrogen) SelectScreen, Z'-LYTE / Adapta
T8 sequence (P11362 22-822): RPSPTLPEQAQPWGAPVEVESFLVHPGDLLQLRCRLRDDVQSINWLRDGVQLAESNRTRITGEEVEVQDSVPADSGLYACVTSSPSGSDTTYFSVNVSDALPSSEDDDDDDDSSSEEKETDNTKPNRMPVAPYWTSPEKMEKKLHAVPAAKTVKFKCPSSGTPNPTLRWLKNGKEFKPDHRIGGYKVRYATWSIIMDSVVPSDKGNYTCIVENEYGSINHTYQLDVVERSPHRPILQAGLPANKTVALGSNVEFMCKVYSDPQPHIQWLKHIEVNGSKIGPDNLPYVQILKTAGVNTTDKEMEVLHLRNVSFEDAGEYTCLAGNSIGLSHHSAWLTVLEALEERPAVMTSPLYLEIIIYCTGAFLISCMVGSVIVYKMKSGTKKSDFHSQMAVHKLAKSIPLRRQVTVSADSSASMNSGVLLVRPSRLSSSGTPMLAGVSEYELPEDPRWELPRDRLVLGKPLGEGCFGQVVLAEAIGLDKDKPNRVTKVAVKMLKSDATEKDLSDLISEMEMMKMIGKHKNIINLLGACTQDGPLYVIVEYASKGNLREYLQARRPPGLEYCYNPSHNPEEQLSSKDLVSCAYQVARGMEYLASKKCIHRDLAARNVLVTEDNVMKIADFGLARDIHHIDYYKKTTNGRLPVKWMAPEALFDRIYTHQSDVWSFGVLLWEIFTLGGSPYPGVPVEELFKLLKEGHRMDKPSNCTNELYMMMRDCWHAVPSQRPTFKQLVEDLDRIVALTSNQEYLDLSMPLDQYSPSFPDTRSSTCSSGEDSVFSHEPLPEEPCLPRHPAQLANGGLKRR
Summary of the method: as §1

FGFR3_h = target: T9, FGFR3_h (Homo sapiens, UniProt P22607); details: KM ATP, read-out: % control
T9 construct: purchased Life Technologies (Invitrogen) SelectScreen, Z'-LYTE / Adapta
T9 sequence (P22607 23-806): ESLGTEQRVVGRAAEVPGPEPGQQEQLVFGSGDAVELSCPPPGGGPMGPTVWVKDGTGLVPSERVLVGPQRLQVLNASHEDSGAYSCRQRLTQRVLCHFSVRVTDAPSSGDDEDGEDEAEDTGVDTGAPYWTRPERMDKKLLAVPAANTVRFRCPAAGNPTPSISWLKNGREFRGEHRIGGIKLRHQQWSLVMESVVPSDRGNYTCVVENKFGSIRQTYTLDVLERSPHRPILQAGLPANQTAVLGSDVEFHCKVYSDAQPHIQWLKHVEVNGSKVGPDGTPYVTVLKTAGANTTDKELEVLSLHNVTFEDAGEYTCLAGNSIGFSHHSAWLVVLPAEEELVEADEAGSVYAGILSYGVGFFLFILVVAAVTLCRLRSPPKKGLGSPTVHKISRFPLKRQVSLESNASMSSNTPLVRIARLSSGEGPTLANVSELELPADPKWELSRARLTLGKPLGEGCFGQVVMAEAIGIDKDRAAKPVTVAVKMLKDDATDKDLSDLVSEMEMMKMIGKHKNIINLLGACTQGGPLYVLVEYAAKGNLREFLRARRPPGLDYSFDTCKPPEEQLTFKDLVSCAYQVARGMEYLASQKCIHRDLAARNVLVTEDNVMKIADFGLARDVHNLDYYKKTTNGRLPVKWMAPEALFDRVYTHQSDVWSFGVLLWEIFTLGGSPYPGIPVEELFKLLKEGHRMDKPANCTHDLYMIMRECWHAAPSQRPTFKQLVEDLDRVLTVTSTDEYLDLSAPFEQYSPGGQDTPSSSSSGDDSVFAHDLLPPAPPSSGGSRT
Summary of the method: as §1

Flt3_D835Y_h = target: T10, Flt3_D835Y_h (Homo sapiens, UniProt P36888, D835Y); details: KM ATP, read-out: % control
T10 construct: purchased Life Technologies (Invitrogen) SelectScreen, Z'-LYTE / Adapta
Summary of the method: as §1

GSK3-beta_h = target: T11, GSK3-beta_h (Homo sapiens, UniProt P49841); details: KM ATP, read-out: % control
T11 construct: purchased Life Technologies (Invitrogen) SelectScreen, Z'-LYTE / Adapta
Summary of the method: as §1

Gck_h = target: T12, Gck_h (Homo sapiens, UniProt Q12851); details: KM ATP, read-out: % control
T12 construct: purchased Life Technologies (Invitrogen) SelectScreen, Z'-LYTE / Adapta
Summary of the method: as §1

IRAK1_h = target: T13, IRAK1_h (Homo sapiens, UniProt P51617); details: KM ATP, read-out: % control
T13 construct: purchased Life Technologies (Invitrogen) SelectScreen, Z'-LYTE / Adapta
Summary of the method: as §1

LYN-B_h = target: T14, LYN-B_h (Homo sapiens, UniProt P07948); details: KM ATP, read-out: % control
T14 construct: purchased Life Technologies (Invitrogen) SelectScreen, Z'-LYTE / Adapta
Summary of the method: as §1

MELK_h = target: T15, MELK_h (Homo sapiens, UniProt Q14680); details: KM ATP, read-out: % control
T15 construct: purchased Life Technologies (Invitrogen) SelectScreen, Z'-LYTE / Adapta
T15 sequence (Q14680 whole entry): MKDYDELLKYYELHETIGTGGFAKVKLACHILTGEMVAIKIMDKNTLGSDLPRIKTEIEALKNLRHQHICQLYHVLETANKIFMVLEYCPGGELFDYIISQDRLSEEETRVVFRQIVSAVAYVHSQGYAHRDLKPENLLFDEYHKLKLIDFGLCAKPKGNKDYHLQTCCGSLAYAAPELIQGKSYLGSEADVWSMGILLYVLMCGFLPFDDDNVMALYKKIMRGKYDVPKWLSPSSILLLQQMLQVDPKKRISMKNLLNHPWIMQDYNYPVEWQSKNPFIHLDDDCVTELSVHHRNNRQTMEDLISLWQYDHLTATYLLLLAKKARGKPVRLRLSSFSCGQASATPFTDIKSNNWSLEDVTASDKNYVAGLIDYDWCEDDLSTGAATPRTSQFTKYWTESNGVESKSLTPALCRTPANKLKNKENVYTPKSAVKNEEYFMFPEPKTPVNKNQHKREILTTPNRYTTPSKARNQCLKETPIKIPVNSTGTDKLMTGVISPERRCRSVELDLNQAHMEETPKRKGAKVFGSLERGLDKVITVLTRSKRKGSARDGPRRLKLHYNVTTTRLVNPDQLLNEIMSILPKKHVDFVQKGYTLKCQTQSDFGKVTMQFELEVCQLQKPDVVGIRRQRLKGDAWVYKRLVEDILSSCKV
Summary of the method: as §1

MINK_h = target: T16, MINK_h (Homo sapiens, UniProt Q8N4C8); details: KM ATP, read-out: % control
T16 construct: purchased Life Technologies (Invitrogen) SelectScreen, Z'-LYTE / Adapta
Summary of the method: as §1

MSSK1_h = target: T17, MSSK1_h (Homo sapiens, UniProt Q9UPE1); details: KM ATP, read-out: % control
T17 construct: purchased Life Technologies (Invitrogen) SelectScreen, Z'-LYTE / Adapta
Summary of the method: as §1

MST3_h = target: T18, MST3_h (Homo sapiens, UniProt Q9Y6E0); details: KM ATP, read-out: % control
T18 construct: purchased Life Technologies (Invitrogen) SelectScreen, Z'-LYTE / Adapta
Summary of the method: as §1

NEK1_h = target: T19, NEK1_h (Homo sapiens, UniProt Q96PY6); details: KM ATP, read-out: % control
T19 construct: purchased Life Technologies (Invitrogen) SelectScreen, Z'-LYTE / Adapta
Summary of the method: as §1

NEK6_h = target: T20, NEK6_h (Homo sapiens, UniProt Q9HC98); details: KM ATP, read-out: % control
T20 construct: purchased Life Technologies (Invitrogen) SelectScreen, Z'-LYTE / Adapta
Summary of the method: as §1

PAK4_h = target: T21, PAK4_h (Homo sapiens, UniProt O96013); details: KM ATP, read-out: % control
T21 construct: purchased Life Technologies (Invitrogen) SelectScreen, Z'-LYTE / Adapta
T21 sequence (O96013 whole entry): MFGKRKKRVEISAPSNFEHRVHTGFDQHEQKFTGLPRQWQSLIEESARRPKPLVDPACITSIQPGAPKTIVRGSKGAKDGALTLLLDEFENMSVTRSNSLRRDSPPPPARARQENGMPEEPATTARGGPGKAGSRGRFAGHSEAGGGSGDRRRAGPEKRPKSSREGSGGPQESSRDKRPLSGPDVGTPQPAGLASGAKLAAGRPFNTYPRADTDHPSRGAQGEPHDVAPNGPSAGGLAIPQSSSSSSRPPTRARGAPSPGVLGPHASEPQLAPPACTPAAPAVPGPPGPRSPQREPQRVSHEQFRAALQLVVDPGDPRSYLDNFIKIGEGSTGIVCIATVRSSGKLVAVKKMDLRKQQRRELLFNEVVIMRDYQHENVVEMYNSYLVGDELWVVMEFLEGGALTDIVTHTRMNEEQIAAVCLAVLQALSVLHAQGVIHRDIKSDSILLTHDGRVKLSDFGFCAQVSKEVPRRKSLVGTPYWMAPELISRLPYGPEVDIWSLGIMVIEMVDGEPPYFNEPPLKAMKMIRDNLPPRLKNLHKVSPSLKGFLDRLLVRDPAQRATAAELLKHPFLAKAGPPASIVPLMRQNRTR
Summary of the method: as §1

PKC-epsilon_h = target: T22, PKC-epsilon_h (Homo sapiens, UniProt Q02156); details: KM ATP, read-out: % control
T22 construct: purchased Life Technologies (Invitrogen) SelectScreen, Z'-LYTE / Adapta
Summary of the method: as §1

PhK-gamma2_h = target: T23, PhK-gamma2_h (Homo sapiens, UniProt P15735); details: KM ATP, read-out: % control
T23 construct: purchased Life Technologies (Invitrogen) SelectScreen, Z'-LYTE / Adapta
Summary of the method: as §1

Plk3_h = target: T24, Plk3_h (Homo sapiens, UniProt Q9H4B4); details: KM ATP, read-out: % control
T24 construct: purchased Life Technologies (Invitrogen) SelectScreen, Z'-LYTE / Adapta
Summary of the method: as §1

ROCK-II_h = target: T25, ROCK-II_h (Homo sapiens, UniProt O75116); details: KM ATP, read-out: % control
T25 construct: purchased Life Technologies (Invitrogen) SelectScreen, Z'-LYTE / Adapta
Summary of the method: as §1

Ron_h = target: T26, Ron_h (Homo sapiens, UniProt Q04912); details: KM ATP, read-out: % control
T26 construct: purchased Life Technologies (Invitrogen) SelectScreen, Z'-LYTE / Adapta
Summary of the method: as §1

Rsk3_h = target: T27, Rsk3_h (Homo sapiens, UniProt Q15349); details: KM ATP, read-out: % control
T27 construct: purchased Life Technologies (Invitrogen) SelectScreen, Z'-LYTE / Adapta
Summary of the method: as §1

TAO1_h = target: T28, TAO1_h (Homo sapiens, UniProt Q9UL54); details: KM ATP, read-out: % control
T28 construct: purchased Life Technologies (Invitrogen) SelectScreen, Z'-LYTE / Adapta
Summary of the method: as §1

TrkA_h = target: T29, TrkA_h (Homo sapiens, UniProt P04629); details: KM ATP, read-out: % control
T29 construct: purchased Life Technologies (Invitrogen) SelectScreen, Z'-LYTE / Adapta
Summary of the method: as §1

TrkB_h = target: T30, TrkB_h (Homo sapiens, UniProt Q16620); details: KM ATP, read-out: % control
T30 construct: purchased Life Technologies (Invitrogen) SelectScreen, Z'-LYTE / Adapta
Summary of the method: as §1

Yes_h = target: T31, Yes_h (Homo sapiens, UniProt P07947); details: KM ATP, read-out: % control
T31 construct: purchased Life Technologies (Invitrogen) SelectScreen, Z'-LYTE / Adapta
Summary of the method: as §1

ZAP-70_h = ZAP-70_h (Homo sapiens, UniProt P43403)
Sequence of ZAP-70_h (P43403 whole entry): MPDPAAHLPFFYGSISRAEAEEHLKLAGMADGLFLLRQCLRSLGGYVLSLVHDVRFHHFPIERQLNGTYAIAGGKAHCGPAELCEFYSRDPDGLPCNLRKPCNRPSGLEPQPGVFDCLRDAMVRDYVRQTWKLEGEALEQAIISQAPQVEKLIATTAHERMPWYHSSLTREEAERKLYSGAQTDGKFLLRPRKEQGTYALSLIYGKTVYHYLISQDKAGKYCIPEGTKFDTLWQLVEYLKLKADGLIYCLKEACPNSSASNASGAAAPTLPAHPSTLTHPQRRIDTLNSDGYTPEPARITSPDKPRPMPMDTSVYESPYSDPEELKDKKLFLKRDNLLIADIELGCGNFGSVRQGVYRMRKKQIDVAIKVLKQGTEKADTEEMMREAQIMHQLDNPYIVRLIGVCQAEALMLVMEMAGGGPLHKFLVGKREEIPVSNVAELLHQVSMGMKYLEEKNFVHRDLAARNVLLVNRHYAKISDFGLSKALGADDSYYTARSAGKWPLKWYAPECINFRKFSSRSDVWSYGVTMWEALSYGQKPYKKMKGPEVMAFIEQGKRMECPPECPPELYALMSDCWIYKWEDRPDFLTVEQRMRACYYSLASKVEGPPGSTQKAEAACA
Summary of the method: as §1

cKit_T670I_h = target: T32, cKit_T670I_h (Homo sapiens, UniProt P10721, T670I); details: KM ATP, read-out: % control
T32 construct: purchased Life Technologies (Invitrogen) SelectScreen, Z'-LYTE / Adapta
Summary of the method: as §1

p70S6K_h = target: T33, p70S6K_h (Homo sapiens, UniProt P23443); details: KM ATP, read-out: % control
T33 construct: purchased Life Technologies (Invitrogen) SelectScreen, Z'-LYTE / Adapta
Summary of the method: as §1

Work on `c1cc(CC2CCOCC2)n2nc(Nc3ccc4c(NC5CCOCC5)n[nH]c4c3)nc2c1` [CC-509, [3-(2H-3,4,5,6-tetrahydropyran-4-ylamino)(1H-indazol-6-yl)][5-(2H-3,4,5,6-tetrahydropyran-4-ylmethyl)(2H-1,2,4-triazolo[1,5-a]pyridin-2-yl)]amine] yielded a remaining activity at 3 µM (Bmx_h) of 52%, a remaining activity at 3 µM (CAMK1_h) of 86% and a remaining activity at 3 µM (CHK2_h) of 97%. The remaining activity at 3 µM (CK1-alpha1_h) was 88%, the remaining activity at 3 µM (CLK3_h) was 81% and the remaining activity at 3 µM (EphA2_h) was 82%. For the same compound, the remaining activity at 3 µM (EphA5_h) was 89%, the remaining activity at 3 µM (FGFR1_h) was 69% and the remaining activity at 3 µM (FGFR3_h) was 68%. The remaining activity at 3 µM (Flt3_D835Y_h) was -1%, the remaining activity at 3 µM (GSK3-beta_h) was 88% and the remaining activity at 3 µM (Gck_h) was 57%. The remaining activity at 3 µM (IRAK1_h) was 20%, the remaining activity at 3 µM (LYN-B_h) was 39% and the remaining activity at 3 µM (MELK_h) was 10%. For the same compound, the remaining activity at 3 µM (MINK_h) was 55%, the remaining activity at 3 µM (MSSK1_h) was 98% and the remaining activity at 3 µM (MST3_h) was 107%. It also gave a remaining activity at 3 µM (NEK1_h) of 73%, a remaining activity at 3 µM (NEK6_h) of 99% and a remaining activity at 3 µM (PAK4_h) of 87%. For the same compound, the remaining activity at 3 µM (PKC-epsilon_h) was 100%, the remaining activity at 3 µM (PhK-gamma2_h) was 103% and the remaining activity at 3 µM (Plk3_h) was 88%. For the same compound, the remaining activity at 3 µM (ROCK-II_h) was 69%, the remaining activity at 3 µM (Ron_h) was 74% and the remaining activity at 3 µM (Rsk3_h) was 33%. It also gave a remaining activity at 3 µM (TAO1_h) of 96%, a remaining activity at 3 µM (TrkA_h) of 41% and a remaining activity at 3 µM (TrkB_h) of 34%. The remaining activity at 3 µM (Yes_h) was 54%, the remaining activity at 3 µM (ZAP-70_h; 3 µM, KM ATP, read-out: % control) was 70% and the IC50 (ZAP-70_h; 10-point dose-response, commercial vendor) was greater than 3 µM. For the same compound, the remaining activity at 3 µM (cKit_T670I_h) was 83% and the remaining activity at 3 µM (p70S6K_h) was 89%.
